Results: patent US20240002388A1, “PYRIMIDINONE COMPOUNDS AND USES THEREOF” (HUTCHISON MEDIPHARMA LIMITED, priority 2020, published 2024)

Target: RIPK1 recombination protein (Homo sapiens (Human), UniProt Q13546)
Assay: RIPK1 kinase activity assay (ADP-Glo)
Assay type: biochemical
Settings: for IC50: RIPK1 kinase activity, ADP-Glo, 10 μM ATP
Description: RIPK1 recombination protein: synthesized by Shanghai Medicilon Inc. under the commission by Hutchison MediPharma Limited (50 g of cell pellet was resuspended in 250 mL of lysis buffer (50 mM Tris, pH 7.5, 250 mM NaCl, 1 mM DTT, protease inhibitor 1:50), the cells were ultrasonically lysed using a sonicator (the power set to 4) on ice for 3×30 minutes; then centrifugation was carried out at 4° C., at 15,000 g for 30 minutes to clarify the suspension, the soluble pellet was resuspended into 10 mL of glutathione agarose, and incubated at 4° C. for 2 hours; then the beads were loaded into the column and washed with lysis buffer (no protease inhibitors) to baseline, and eluted with 20 mM of reduced glutathione (50 mM Tris, pH 8). The fractions identified by SDS-PAGE as containing the protein of interest were collected (10 mL of total volume), concentrated to about 5 mL and loaded into 300 mL superdex75 column (GE Healthcare) equilibrated with buffer (50 mM Tris, pH 7.5, 150 mM NaCl, 1 mM DTT, 10% glycerol, pH 7.5). RIP1 protein was eluted as a dimer from the superdex75 column. The protein concentration was determined by the Bradford assay using BSA as the standard. The yield was 12.5 mg at 0.63 mg/mL. The protein was aliquoted and frozen at −80° C. for later use.
ADP-Glo Kinase kit can be used to measure ADP level in kinase activity assay so as to distinguish the inhibitory effects of different compounds on RIPK1 kinase activity. The ADP-Glo assay was usually divided into three steps. Firstly, the kinase converted ATP to ADP and phosphorylated the substrate at the same time; secondly, ATP digestion reagent was added to degrade all ATP in the reaction system; finally, a detection reagent was added to reduce ADP to ATP, and energy from ATP was transferred to […] which thus emitting a chemical luminescence that can be detected. Assay procedure can refer to manufacture's technical manual.
(2) Reagent Preparation: • 1.33× kinase buffer: 5× kinase buffer stock (250 mM of NaCl, 150 mM of MgCl2, 2.5 mg/ml BSA (bovine serum albumin), 0.1% CHAPS (3-[(3-cholamidopropyl)-dimethyl-ammonio]-1-propane sulfonate), and 5 mM of dithiothreitol) was diluted with water to 1.33× kinase buffer; • RIPK1 enzyme solution: the kinase was dissolved in 1.33× kinase buffer to make 40 nM as the final working concentration; • ATP solution: 10 mM ATP stock solution in water was dissolved in 1.33× kinase buffer to make 10 μM as the final working concentration; • 4× compound preparation: the compound was diluted in a 3-fold gradient, and finally 4% DMSO aqueous solution containing different concentrations of the compound was obtained. The final concentrations of the test compound were 10, 3.33, 1.11, 0.37, 0.12, 0.04, 0.014, and 0.005 μM.
The assay set up two control groups, one was 100% inhibition group (no enzyme treatment), another was 0% inhibition group (no inhibitor treatment), each control group contained 8 replicate wells. 2.5 μl of serially diluted compound was added to each well of a 384-well plate, with double replicate wells, and 4% DMSO solution was added to control wells. Then 5 μl of RIPK1 enzyme solution was added to each well except 100% inhibition control, 5 ul of buffer was added to 100% inhibition control, after that, 2.5 μl of ATP solution was added to all wells, the plate was vibrated at 1000 rpm for 30 seconds to perform transient centrifuge; finally the 384-well assay plate was put in the shaking incubator, and incubated at room temperature for 3 hours. After the enzymatic reaction was completed, 5 μl of ATP depletion reagent was added to each well, the mixture was centrifuged transiently, then the 384-well assay plate was put in the shaking incubator, and incubated at room temperature for 1 hour. 5 μl of ADP detection reagent was added to each well, and the mixture was centrifuged transiently, and incubated at room temperature for 0.5 hour. […]

Sequence of RIPK1 recombination protein (Q13546 other isoform, or with tags, fused parts or gaps): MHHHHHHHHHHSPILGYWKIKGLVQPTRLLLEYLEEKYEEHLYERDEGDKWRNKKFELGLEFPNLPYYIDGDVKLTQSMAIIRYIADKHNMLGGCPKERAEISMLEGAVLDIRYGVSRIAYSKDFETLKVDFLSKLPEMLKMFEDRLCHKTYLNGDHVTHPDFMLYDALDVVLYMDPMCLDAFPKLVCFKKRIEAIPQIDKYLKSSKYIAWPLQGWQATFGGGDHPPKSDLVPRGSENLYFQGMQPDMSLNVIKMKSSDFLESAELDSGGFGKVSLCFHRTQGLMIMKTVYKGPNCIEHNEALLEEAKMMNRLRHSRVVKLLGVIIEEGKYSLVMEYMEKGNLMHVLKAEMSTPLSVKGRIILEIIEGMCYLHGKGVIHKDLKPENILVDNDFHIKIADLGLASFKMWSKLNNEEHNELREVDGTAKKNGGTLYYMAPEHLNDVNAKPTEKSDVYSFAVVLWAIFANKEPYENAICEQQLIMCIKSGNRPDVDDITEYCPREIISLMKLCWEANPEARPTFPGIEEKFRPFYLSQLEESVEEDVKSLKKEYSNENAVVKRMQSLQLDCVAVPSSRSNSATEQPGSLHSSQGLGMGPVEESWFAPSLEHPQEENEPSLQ

SMILES | inhibition at 3 µM (3 μM compound, read-out: Inhibition rate at the compound concentration of 3 μM) [%] | IC50 [nM]
CC(C)n1ncc2cnc(C(=O)NC3(c4ccc(-c5cncn(C)c5=O)cc4Cl)CC3)nc21 [Compound 32] | 82.5 | 
C[C@@H](c1ccccc1)c1nnc(C(=O)NC2(c3ccc(-c4cncn(C)c4=O)cc3)CC2)[nH]1 [Compound 58, (S)—N-(1-(4-(1-methyl-6-oxo-1,6-dihydropyrimidin-5-yl)phenyl)cyclopropyl)-5-(1-phenylethyl)-4H-1,2,4-triazole-3-carboxamide] |  | 139
C[C@H](c1ccccc1)c1nnc(C(=O)NC2(c3ccc(-c4cncn(C)c4=O)cc3)CC2)[nH]1 [Compound 57, (R)—N-(1-(4-(1-methyl-6-oxo-1,6-dihydropyrimidin-5-yl)phenyl)cyclopropyl)-5-(1-phenylethyl)-4H-1,2,4-triazole-3-carboxamide] |  | 531
Cc1ncc(-c2ccc(C3(NC(=O)c4ncc5cnn(C(C)C)c5n4)CC3)cc2)c(=O)n1C [Compound 31] |  | 432
C[C@@H](c1ccccc1)n1cnc(C(=O)NC2(c3ccc(-c4cncn(C)c4=O)cc3)CC2)n1 [Compound 56, (S)—N-(1-(4-(1-methyl-6-oxo-1,6-dihydropyrimidin-5-yl)phenyl)cyclopropyl)-1-(1-phenylethyl)-1H-1,2,4-triazole-3-carboxamide] |  | 189
